Where two headings read alike, the source gives them in different places.
Columns and labels:
[1] = system: Ramos B-cell line stimulated with IL-4; experiment: Assay for Ramos B-Cell Line Stimulated with IL-4 (CD23 upregulation, FACS); format: cell-based, human; conditions: read-out: Example 2 (IC50, Ramos B-cell line stimulated with IL-4)
Description: One means of assaying for such inhibition is detection of the effect of the 2,4-pyrimidinediamine compounds on the upregulation of downstream gene products. In the Ramos/IL4 assay, B-cells are stimulated with the cytokine Interleukin-4 (IL-4) leading to the activation of the JAK/Stat pathway through phosphorylation of the JAK family kinases, JAK1 and JAK3, which in turn phosphorylate and activate the transcription factor Stat-6. […] To study the effect of inhibitors (e.g., the 2,4-substituted pyrimindinediamine compounds described herein) on the JAK1 and JAK3 kinases, human Ramos B cells are stimulated with human IL-4. Twenty to 24 hours post stimulation, cells are stained for upregulation of CD23 and analyzed using flow cytometry (FACS). […] An exemplary assay of this type is described in greater detail in Example 2.
B-cells stimulated with cytokine Interleukin-4 (IL-4) activate the JAK/Stat pathway through phosphorylation of the JAK family kinases, JAK-1 and JAK-3, which in turn phosphorylate and activate the transcription factor Stat-6. […] To study the effect of inhibitors on the JAK family kinases, human Ramos B cells are stimulated with human IL-4.
The Ramos B-cell line was acquired from ATCC (ATCC Catalog No. CRL-1596). The cells were cultured in RPMI 1640 (Cellgro, MediaTech, Inc., Herndon, Va., Cat No. 10-040-CM) with 10% fetal bovine serum (FBS), heat inactivated (JRH Biosciences, Inc, Lenexa, Kans., Cat No. 12106-500M) according to ATCC propagation protocol. Cells were maintained at a density of 3.5×10^5. The day before the experiment, Ramos B-cells were diluted to 3.5×10^5 cells/mL to ensure that they were in a logarithmic growth phase.
Cells were spun down and suspended in RPMI with 5% serum. 5×10^4 cells were used per point in a 96-well tissue culture plate. Cells were pre-incubated with compound or DMSO (Sigma-Aldrich, St. Louis, Mo., Cat No. D2650) vehicle control for 1 hour in a 37° C. incubator.
Cells were then stimulated with IL-4 (Peprotech Inc., Rocky Hill, N.J., Cat No. 200-04) for a final concentration of 50 units/mL for 20-24 hours. Cells were then spun down and stained with anti-CD23-PE (BD Pharmingen, San Diego, Calif., Cat No. 555711) and analyzed by FACS. Detection was performed using a BD LSR I System Flow Cytometer, purchased from Becton Dickinson Biosciences of San Jose, Calif.

Primary human T-cells = experiment: Primary Human T-Cell Proliferation Assay Stimulated with IL-2 (CellTiter-Glo); format: cell-based; conditions: read-out: Example 3 (IC50, primary human T-cell proliferation stimulated with IL-2)
Description: The activity of the active compounds of the invention may further be characterized by assaying the effect of the 2,4-pyrimidinediamine compounds described herein on the proliferative response of primary human T-cells. In this assay, primary human T-cells derived from peripheral blood and pre-activated through stimulation of the T-cell receptor and CD28, proliferate in culture in response to the cytokine Interleukin-2 (IL-2). This proliferative response is dependent on the activation of JAK1 and JAK3 tyrosine kinases, which phosphorylate and activate the transcription factor Stat-5. The primary human T-cells are incubated with the 2,4-pyrimidinediamine compounds in the presence of IL-2 for 72 hours and at the assay endpoint intracellular ATP concentrations are measured to assess cell viability. A reduction in cell proliferation compared to control conditions is indicative of inhibition of the JAK kinase pathway. An exemplary assay of this type is described in greater detail in Example 3.
Primary human T-cells derived from peripheral blood and pre-activated through stimulation of the T-cell receptor and CD28, proliferate in vitro in response to the cytokine Interleukin-2 (IL-2). This proliferative response is dependent on the activation of JAK-1 and JAK-3 tyrosine kinases, which phosphorylate and activate the transcription factor Stat-5.
Human primary T cells were prepared as follows. Whole blood was obtained from a healthy volunteer, mixed 1:1 with PBS, layered on to Ficoll Hypaque (Amersham Pharmacia Biotech, Piscataway, N.J., Catalog #17-1440-03) in 2:1 blood/PBS:ficoll ratio and centrifuged for 30 min at 4° C. at 1750 rpm. The lymphocytes at the serum: ficoll interface were recovered and washed twice with 5 volumes of PBS. The cells were resuspended in Yssel's medium (Gemini Bio-products, Woodland, Calif., Catalog #400-103) containing 40 U/mL recombinant IL2 (R and D Systems, Minneapolis, Minn., Catalog #202-IL (20 μg)) and seeded into a flask pre-coated with 1 μg/mL anti-CD3 (BD Pharmingen, San Diego, Calif., Catalog #555336) and […] (Immunotech, Beckman Coulter of Brea Calif., Catalog #IM1376). The primary T-cells were stimulated for 3-4 days, then transferred to a fresh flask and maintained in RPMI with 10% FBS and 40 U/mL IL-2.
Primary T-cells were washed twice with PBS to remove the IL-2 and resuspended in Yssel's medium at 2×10^6 cells/mL. 50 μL of cell suspension containing 80 U/mL IL-2 was added to each well of a flat bottom 96 well black plate. For the unstimulated control, IL-2 was omitted from the last column on the plate. Compounds were serially diluted in dimethyl sulfoxide (DMSO, 99.7% pure, cell culture tested, Sigma-Aldrich, St. Louis, Mo., Catalog No. D2650) from 5 mM in 3-fold dilutions, and then diluted 1:250 in Yssel's medium. 50 μL of 2× compound was added per well in duplicate and the cells were allowed to proliferate for 72 hours at 37° C.
Proliferation was measured using CellTiter-Glo® Luminescent Cell Viability Assay (Promega), which determines the number of viable cells in culture based on quantitation of the ATP present, as an indicator of metabolically active cells. The substrate was thawed and allowed to come to room temperature. After mixing the Cell Titer-Glo reagent and diluent together, 100 μL was added to each well. The plates were mixed on an orbital shaker for two minutes to induce lysis and incubated at room temperature for an additional ten minutes to allow the signal to equilibrate. Detection was performed using a Wallac Victor2 1420 multilabel counter purchased from Perkin Elmer, Shelton, Conn.

[2] = IL-4 50 units/mL, 20-24 hours, anti-CD23-PE staining, FACS
[3] = IL-2, 72 hours, ATP quantitation (CellTiter-Glo)
[4] = Homo sapiens, Ramos, IL-4 50 units/mL, 20-24 hours, anti-CD23-PE staining, FACS
[5] = Homo sapiens, T-cell, 72 h, IL-2, 72 hours, ATP quantitation (CellTiter-Glo)

SMILES	IC50 [1, 2] [nM]	IC50 (Primary human T-cells; [3]) [nM]	further results
CCS(=O)(=O)NCc1ccc(Nc2nc(Nc3ccc(CS(=O)(=O)NC)cc3)ncc2C)cc1 [Compound I-2, N4-(4-ethylsulfonylaminomethyl)phenyl-5-methyl-N2-(4-methylaminosulfonylmethyl)phenyl-2,4-pyrimidinediamine]	70.3	79.6	–
CC1(C)Oc2cc(Nc3nc(Nc4cccc(CS(N)(=O)=O)c4)ncc3F)cnc2NC1=O [IV-1, N2-[3-(Aminosulfonylmethylene)phenyl]-N4-[2,2-dimethyl-3-oxo-4H-pyrid[1,4]oxazin-7-yl]-5-fluoro-2,4-pyrimidinediamine]	133	482	–
Cc1cnc(Nc2ccc(CNS(=O)(=O)C3CC3)cc2)nc1Nc1ccc(CNS(=O)(=O)C2CC2)cc1 [II-1, N2,N4-bis(4-cyclopropylsulfonylaminomethyl)phenyl-5-methyl-2,4-pyrimidinediamine]	45.2	26	–
Cc1cnc(Nc2ccc(CCNS(=O)(=O)C3CC3)cc2)nc1Nc1ccc(CCNS(=O)(=O)C2CC2)cc1 [II-2, N2,N4-bis[4-(2-cyclopropylsulfonylamino)ethyl]phenyl-5-methyl-2,4-pyrimidine diamine]	202	317	–
CCS(=O)(=O)NCc1ccc(Nc2nc(Nc3ccc(CS(=O)(=O)NC)cc3)ncc2F)cc1 [Compound I-10, N4-(4-ethylsulfonylaminomethyl)phenyl-5-fluoro-N2-(4-methylaminosulfonylmethyl)phenyl-2,4-pyrimidinediamine]	285	424	–
CN1C(=O)C(C)(C)Oc2cc(Nc3nc(Nc4cccc(CS(N)(=O)=O)c4)ncc3F)cnc21 [IV-2, N2-[3-(Aminosulfonylmethylene)phenyl]-N4-[2,2-dimethyl-3-oxo-4-methyl-pyrid[1,4]oxazin-7-yl]-5-fluoro-2,4-pyrimidinediamine]	170	881	–
C#CCOc1ccc(Nc2nc(Nc3ccc4c(c3)CN(S(N)(=O)=O)CC4)ncc2F)cc1 [III-4, N2-(2-Aminosulfonyl-1,2,3,4-tetrahydroisoquinolin-7-yl)-N4-(4-(prop-2-ynyloxy)phenyl)-5-fluoro-2,4-pyrimidinediamine]	–	–	IC50 ([1]; Homo sapiens, Ramos): 101 nM; IC50 (Primary human T-cells; Homo sapiens, T-cell, 72 h): 129 nM
N#CCOc1ccc(Nc2nc(Nc3cccc(CS(N)(=O)=O)c3)ncc2F)cc1 [Compound I-1, N2-[3-(Aminosulfonylmethylene)phenyl]-5-fluoro-N4-(4-cyanomethyleneoxyphenyl)-2,4-pyrimidinediamine]	48.9	93	–
COc1cc(Nc2nc(Nc3ccc4c(c3)CN(S(N)(=O)=O)CC4)ncc2F)ccc1Cl [III-1, N2-(2-Aminosulfonyl-1,2,3,4-tetrahydroisoquinolin-7-yl)-N4-(4-chloro-3-methoxyphenyl)-5-fluoro-2,4-pyrimidinediamine]	–	–	IC50 [1, 4]: 129 nM; IC50 (Primary human T-cells; [5]): 279 nM
NS(=O)(=O)N1CCc2ccc(Nc3ncc(F)c(Nc4ccc(CNS(=O)(=O)C5CC5)cc4)n3)cc2C1 [III-2, N2-(2-Aminosulfonyl-1,2,3,4-tetrahydroisoquinolin-7-yl)-N4-[4-(cyclopropylsulfonylaminomethyl)phenyl]-5-fluoro-2,4-pyrimidinediamine]	–	–	IC50 [1, 4]: 27.4 nM; IC50 (Primary human T-cells; [5]): 16.6 nM
CNS(=O)(=O)Cc1ccc(Nc2ncc(F)c(Nc3ccc(CNS(=O)(=O)C4CC4)cc3)n2)cc1 [Compound I-8, N4-(4-cyclopropylsulfonylaminomethyl)phenyl-5-fluoro-N2-(4-methylaminosulfonylmethyl)phenyl-2,4-pyrimidinediamine]	147	229	–
Cc1cnc(Nc2ccc(S(N)(=O)=O)cc2)nc1Nc1ccc2c(c1)C(NS(C)(=O)=O)CC2 (racemic) [VI-2, (+/−)-N2-(4-Aminosulfonylphenyl)-5-methyl-N4-[1-(methylsulfonyl)aminoindan-6-yl]-2,4-pyrimidinediamine]	–	–	IC50 [1, 4]: 279 nM; IC50 (Primary human T-cells; [5]): 1020 nM

— patent US8729087B2, “Compositions and methods for inhibition of the JAK pathway” (Rigel Pharmaceuticals, Inc., priority 2006, dated 2014)
